ChEMBL document CHEMBL5649166, “RIP3 induces apoptosis independent of pronecrotic kinase activity” (Mol Cell, 2014)

Legend:
[1] = target: T1, Serine/threonine-protein kinase 3 (Homo sapiens) (UniProt Q13188); assay: Inhibition of human MST2/STK3 using myelin basic protein as substrate at 1 uM in presence of 32P-ATP by Hotspot assay relative to control; values are per cent of control
T1 sequence (whole entry): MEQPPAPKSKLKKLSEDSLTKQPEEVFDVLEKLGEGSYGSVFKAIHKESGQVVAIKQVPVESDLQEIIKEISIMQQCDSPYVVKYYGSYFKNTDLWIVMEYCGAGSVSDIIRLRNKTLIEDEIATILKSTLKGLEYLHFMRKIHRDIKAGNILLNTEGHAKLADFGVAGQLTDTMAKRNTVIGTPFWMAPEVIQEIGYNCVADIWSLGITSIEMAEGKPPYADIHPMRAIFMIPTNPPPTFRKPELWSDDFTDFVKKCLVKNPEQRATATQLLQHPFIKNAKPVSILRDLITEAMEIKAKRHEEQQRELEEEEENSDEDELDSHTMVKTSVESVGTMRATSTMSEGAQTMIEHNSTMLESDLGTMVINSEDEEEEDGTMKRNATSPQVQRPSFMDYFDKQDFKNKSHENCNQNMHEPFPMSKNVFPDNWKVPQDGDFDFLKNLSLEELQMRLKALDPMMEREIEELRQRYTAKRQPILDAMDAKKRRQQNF

[2] = target: Glycogen synthase kinase-3 alpha (Homo sapiens) (UniProt P49840); assay: Inhibition of human GSK3a using YRRAAVPPSPSLSRHSSPHQ(pS)EDEEE as substrate at 1 uM in presence of 32P-ATP by Hotspot assay relative to control; values are per cent of control
[3] = target: Mitogen-activated protein kinase 9 (Homo sapiens) (UniProt P45984); assay: Inhibition of human JNK2 using ATF2 as substrate at 1 uM in presence of 32P-ATP by Hotspot assay relative to control; values are per cent of control
[4] = target: Cyclin-dependent kinase 1/cyclin B1 (Homo sapiens) (UniProt P06493+P14635); assay: Inhibition of human CDK1/cyclin B using RB Protein as substrate at 1 uM in presence of 32P-ATP by Hotspot assay relative to control; values are per cent of control
[5] = target: T2, Protein kinase C epsilon type (Homo sapiens) (UniProt Q02156); assay: Inhibition of human PKCepsilon using ERMRPRKRQGSVRRRV as substrate at 1 uM in presence of 32P-ATP by Hotspot assay relative to control; values are per cent of control
T2 sequence (whole entry): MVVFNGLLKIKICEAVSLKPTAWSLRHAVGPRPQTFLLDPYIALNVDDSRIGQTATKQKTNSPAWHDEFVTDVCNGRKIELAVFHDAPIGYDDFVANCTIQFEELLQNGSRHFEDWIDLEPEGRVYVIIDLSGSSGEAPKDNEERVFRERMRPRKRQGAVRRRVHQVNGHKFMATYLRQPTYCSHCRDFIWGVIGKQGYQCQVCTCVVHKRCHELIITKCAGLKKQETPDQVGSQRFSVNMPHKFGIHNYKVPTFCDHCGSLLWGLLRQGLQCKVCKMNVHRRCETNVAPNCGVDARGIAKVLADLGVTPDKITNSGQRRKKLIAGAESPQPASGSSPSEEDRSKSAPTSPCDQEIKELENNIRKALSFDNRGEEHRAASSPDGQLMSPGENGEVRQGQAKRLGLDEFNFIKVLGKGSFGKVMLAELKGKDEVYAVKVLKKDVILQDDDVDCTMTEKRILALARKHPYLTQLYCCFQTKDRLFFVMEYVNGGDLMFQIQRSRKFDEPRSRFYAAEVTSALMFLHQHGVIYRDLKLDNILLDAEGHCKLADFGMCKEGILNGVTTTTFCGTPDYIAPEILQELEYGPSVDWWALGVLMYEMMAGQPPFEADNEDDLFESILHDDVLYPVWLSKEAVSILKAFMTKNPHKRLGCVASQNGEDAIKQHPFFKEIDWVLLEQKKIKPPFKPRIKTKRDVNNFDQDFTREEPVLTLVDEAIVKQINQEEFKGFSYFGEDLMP

[6] = target: Fibroblast growth factor receptor 1 (Homo sapiens) (UniProt P11362); assay: Inhibition of human FGFR1 using poly[Glu:Tyr] (4:1) as substrate at 1 uM in presence of 32P-ATP by Hotspot assay relative to control; values are per cent of control
[7] = target: T3, Lymphokine-activated killer T-cell-originated protein kinase (Homo sapiens) (UniProt Q96KB5); assay: Inhibition of human PBK/TOPK using myelin basic protein as substrate at 1 uM in presence of 32P-ATP by Hotspot assay relative to control; values are per cent of control
T3 sequence (whole entry): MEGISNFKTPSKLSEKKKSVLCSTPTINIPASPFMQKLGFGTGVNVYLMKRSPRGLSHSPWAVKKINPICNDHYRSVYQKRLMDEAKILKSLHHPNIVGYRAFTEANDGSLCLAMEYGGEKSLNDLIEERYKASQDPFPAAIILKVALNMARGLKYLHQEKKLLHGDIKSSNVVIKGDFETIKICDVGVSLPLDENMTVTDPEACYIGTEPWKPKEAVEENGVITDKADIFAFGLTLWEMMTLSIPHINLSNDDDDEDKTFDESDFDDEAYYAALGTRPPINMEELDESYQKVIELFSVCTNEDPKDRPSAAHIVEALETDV

[8] = target: Protein kinase C beta type (Homo sapiens) (UniProt P05771); assay: Inhibition of human PKCb1 using ERMRPRKRQGSVRRRV as substrate at 1 uM in presence of 32P-ATP by Hotspot assay relative to control; values are per cent of control
MEF = assay: Induction of apoptosis in RIP3-/- MEF cells transfected with human RIP3 incubated for 18 hrs by Cell Titer-Glo luminescent cell viability assay; format: toxicity, cell-based; conditions: mouse

Cyclin-dependent kinase 1/cyclin B1 (Homo sapiens), sequence (P06493 whole entry, looked up): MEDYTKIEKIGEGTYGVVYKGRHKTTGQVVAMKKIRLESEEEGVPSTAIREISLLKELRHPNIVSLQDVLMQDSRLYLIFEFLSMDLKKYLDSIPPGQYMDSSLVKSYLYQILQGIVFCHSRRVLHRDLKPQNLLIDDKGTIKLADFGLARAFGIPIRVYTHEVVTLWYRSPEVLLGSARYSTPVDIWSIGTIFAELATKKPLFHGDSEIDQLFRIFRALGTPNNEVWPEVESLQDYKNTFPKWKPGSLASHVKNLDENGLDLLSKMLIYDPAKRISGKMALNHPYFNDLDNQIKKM
Cyclin-dependent kinase 1/cyclin B1 (Homo sapiens), sequence (P14635 whole entry, looked up): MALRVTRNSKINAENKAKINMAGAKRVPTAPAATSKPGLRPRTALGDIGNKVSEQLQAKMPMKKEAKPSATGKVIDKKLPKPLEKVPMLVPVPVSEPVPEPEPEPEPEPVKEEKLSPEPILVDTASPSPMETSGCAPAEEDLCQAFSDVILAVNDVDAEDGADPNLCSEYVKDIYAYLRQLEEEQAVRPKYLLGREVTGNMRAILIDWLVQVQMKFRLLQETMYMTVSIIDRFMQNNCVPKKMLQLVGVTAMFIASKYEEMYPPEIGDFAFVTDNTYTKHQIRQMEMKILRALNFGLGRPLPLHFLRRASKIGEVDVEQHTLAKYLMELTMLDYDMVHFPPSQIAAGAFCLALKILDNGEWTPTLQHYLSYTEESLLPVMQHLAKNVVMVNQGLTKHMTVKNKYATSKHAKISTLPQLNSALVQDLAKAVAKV
Protein kinase C beta type (Homo sapiens), sequence (P05771 2-671 limits assumed): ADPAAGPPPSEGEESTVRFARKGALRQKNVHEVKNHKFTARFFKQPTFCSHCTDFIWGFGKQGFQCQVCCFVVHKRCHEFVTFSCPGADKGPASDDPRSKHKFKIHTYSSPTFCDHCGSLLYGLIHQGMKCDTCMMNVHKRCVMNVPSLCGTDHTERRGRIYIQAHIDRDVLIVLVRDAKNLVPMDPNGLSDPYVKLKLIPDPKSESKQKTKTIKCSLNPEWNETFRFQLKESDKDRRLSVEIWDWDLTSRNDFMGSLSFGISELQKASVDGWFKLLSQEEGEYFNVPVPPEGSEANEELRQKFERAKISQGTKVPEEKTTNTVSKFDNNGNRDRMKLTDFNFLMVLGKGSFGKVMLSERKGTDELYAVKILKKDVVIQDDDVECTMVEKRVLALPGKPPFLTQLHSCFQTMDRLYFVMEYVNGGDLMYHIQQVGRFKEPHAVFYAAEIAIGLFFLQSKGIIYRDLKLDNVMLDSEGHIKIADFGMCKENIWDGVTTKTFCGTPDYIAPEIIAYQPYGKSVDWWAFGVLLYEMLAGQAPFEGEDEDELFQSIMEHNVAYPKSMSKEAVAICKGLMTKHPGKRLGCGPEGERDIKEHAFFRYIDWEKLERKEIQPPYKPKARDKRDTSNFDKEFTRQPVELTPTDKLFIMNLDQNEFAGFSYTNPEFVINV
Glycogen synthase kinase-3 alpha (Homo sapiens), sequence (P49840 2-483 limits assumed): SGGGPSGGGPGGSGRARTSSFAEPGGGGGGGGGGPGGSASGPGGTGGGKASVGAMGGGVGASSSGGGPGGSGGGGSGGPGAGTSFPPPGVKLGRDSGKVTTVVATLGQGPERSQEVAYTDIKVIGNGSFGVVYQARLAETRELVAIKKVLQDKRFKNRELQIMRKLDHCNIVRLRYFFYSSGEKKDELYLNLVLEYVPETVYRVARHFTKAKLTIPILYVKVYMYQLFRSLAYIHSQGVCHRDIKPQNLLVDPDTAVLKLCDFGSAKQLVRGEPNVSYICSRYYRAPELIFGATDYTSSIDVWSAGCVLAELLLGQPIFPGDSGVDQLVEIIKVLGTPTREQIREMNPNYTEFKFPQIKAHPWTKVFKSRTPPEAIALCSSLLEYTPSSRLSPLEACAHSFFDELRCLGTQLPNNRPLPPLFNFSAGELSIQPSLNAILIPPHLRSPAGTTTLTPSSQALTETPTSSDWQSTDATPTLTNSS
Fibroblast growth factor receptor 1 (Homo sapiens), sequence (P11362 22-822 limits assumed): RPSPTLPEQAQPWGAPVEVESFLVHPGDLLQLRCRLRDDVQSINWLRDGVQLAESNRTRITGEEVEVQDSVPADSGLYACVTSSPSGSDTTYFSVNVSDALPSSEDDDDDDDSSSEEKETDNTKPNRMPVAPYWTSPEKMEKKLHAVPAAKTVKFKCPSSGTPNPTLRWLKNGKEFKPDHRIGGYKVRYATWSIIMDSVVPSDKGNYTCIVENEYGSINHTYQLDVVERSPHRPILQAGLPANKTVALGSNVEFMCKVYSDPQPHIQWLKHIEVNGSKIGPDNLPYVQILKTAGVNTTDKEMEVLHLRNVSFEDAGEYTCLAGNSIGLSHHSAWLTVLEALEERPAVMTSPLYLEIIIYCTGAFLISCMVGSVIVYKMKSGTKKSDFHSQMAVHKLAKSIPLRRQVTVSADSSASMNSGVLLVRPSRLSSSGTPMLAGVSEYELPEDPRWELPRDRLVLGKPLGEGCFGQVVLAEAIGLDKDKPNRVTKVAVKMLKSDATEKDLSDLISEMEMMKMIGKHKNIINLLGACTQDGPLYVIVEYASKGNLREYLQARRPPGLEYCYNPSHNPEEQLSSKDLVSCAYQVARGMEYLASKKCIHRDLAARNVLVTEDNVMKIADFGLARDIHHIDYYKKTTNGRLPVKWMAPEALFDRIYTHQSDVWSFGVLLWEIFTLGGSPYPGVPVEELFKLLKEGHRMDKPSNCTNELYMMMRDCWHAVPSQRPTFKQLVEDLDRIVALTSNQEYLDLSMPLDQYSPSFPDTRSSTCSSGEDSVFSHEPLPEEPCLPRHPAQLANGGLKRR
Mitogen-activated protein kinase 9 (Homo sapiens), sequence (P45984 whole entry, looked up): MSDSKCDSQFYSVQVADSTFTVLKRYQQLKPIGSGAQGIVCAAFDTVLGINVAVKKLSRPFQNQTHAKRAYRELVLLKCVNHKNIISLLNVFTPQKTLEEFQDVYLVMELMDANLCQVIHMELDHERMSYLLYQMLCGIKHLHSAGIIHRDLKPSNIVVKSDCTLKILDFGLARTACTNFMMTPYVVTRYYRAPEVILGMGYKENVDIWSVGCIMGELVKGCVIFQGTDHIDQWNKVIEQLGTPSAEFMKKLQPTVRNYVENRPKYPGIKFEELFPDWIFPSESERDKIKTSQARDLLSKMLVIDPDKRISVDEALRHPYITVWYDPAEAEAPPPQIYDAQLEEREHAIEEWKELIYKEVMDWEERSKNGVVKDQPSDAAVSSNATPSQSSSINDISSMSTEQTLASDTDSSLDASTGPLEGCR

Row | SMILES | residual activity [1] [%] | residual activity [2] [%] | residual activity [3] [%] | residual activity [4] [%] | residual activity [5] [%] | residual activity [6] [%] | residual activity [7] [%] | residual activity [8] [%] | Activity (MEF)
1 | Cc1cc(-c2cnc(N)c3c(-c4ccc5scnc5c4)csc23)n(C)n1 | 93.8 | 99.8 | 69.7 | 95 | 103 | 59.1 | 100 | 96.1 | Toxic
2 | CC(C)S(=O)(=O)c1ccc2nccc(Nc3ccc4scnc4c3)c2c1 | 101 | 92.4 | 106 | 101 | 96 | 63.3 | 105 | 96.3 | Toxic
3 | CNC(=O)c1ccc2c(c1)ncn2-c1ccc(CC(=O)OC(C)(C)C)cc1 | 95.2 | 99.8 | 96.6 | 98.9 | 96.7 | 56.4 | 102 | 95 | Toxic
